What was measured:
[1] = Solubility study with β-cyclodextrin and hydroxypropyl β-cyclodextrin; type: physicochemical; conditions: ca. 24 hours, 27° C.
Description: The flasks were kept ca. 24 hours on a mechanical shaker, maintained at 27° C. and 140 rpm. The solutions were filtered through 0.2 micron syringe filter. The filtrates were diluted appropriately and injected on HPLC. The amounts dissolved were determined by comparing the sample peak area with peak area of standard solution.

pKa value = type: physicochemical
[2] = Solubility at ambient temperature (in water); type: physicochemical
Wistar rats = conditions: rat, in vivo, iv
Description: Wistar rats of body weight range 90-100 gm were treated with i.v. administered above test compositions in doses specified in the table below for a period of 7 days to 28 days. The test doses were administered by injecting 0.5 ml-1.0 ml of test compositions via tail vein of each rat with the help of graduated 1 ml disposable syringe fitted with 26½ G needle. Each repeat dose was administered in 5 male and 5 female rats. Animals were monitored for the induction of phlebitis or its progression to complete venous blockade.

amount dissolved with HP-β-CD ([1]; HP-β-CD 0 mg/ml) [mg/mL]	amount dissolved with HP-β-CD ([1]; HP-β-CD 2 mg/ml) [mg/mL]	amount dissolved with HP-β-CD ([1]; HP-β-CD 5 mg/ml) [mg/mL]	amount dissolved with HP-β-CD ([1]; HP-β-CD 10 mg/ml) [mg/mL]	amount dissolved with β-CD ([1]; β-CD 0 mg/ml) [mg/mL]	amount dissolved with β-CD ([1]; β-CD 5 mg/ml) [mg/mL]	Structure (SMILES)	amount dissolved with HP-β-CD ([1]; HP-β-CD 50 mg/ml) [mg/mL]	amount dissolved with β-CD ([1]; β-CD 10 mg/ml) [mg/mL]	pKa (pKa value)	solubility [2] [µg/mL]	amount dissolved with β-CD ([1]; β-CD 2 mg/ml) [mg/mL]	venous tolerability (Wistar rats)
0.03	0.05	0.11	0.31	0.03	0.22	CC1CCc2c(N3CCC(O)CC3)c(F)cc3c(=O)c(C(=O)O)cn1c23 (racemic) [Substance C, RS-(±)-9-fluoro-6,7-dihydro-8-(4-hydroxypiperidin-1-yl)-5-methyl-1-oxo-1H,5H-benzo[I,j]quinolizine-2-carboxylic acid]	1.03	0.40	–	–	–	–
0.15	0.37	0.50	1.08	0.15	0.71	C[C@@H]1CCc2c(N3CCC(O)CC3)c(F)cc3c(=O)c(C(=O)O)cn1c23 [Substance D, R-(+)-9-fluoro-6,7-dihydro-8-(4-hydroxypiperidin-1-yl)-5-methyl-1-oxo-1H,5H-benzo[I,j]quinolizine-2-carboxylic acid]	5.01	–	–	–	–	–
–	–	–	–	–	–	C[C@H]1CCc2c(N3CCC(O)CC3)c(F)cc3c(=O)c(C(=O)O)cn1c23.N=C(N)NCCC[C@H](N)C(=O)O [Substance B, S-(−)-9-fluoro-6,7-dihydro-8-(4-hydroxypiperidin-1-yl)-5-methyl-1-oxo-1H,5H-benzo[I,j]quinolizine-2-carboxylic acid arginine salt]	–	–	–	–	–	superior venous tolerability

Structure (SMILES)	amount dissolved with HP-β-CD ([1]; HP-β-CD 0 mg/ml) [mg/mL]	amount dissolved with HP-β-CD ([1]; HP-β-CD 2 mg/ml) [mg/mL]	amount dissolved with HP-β-CD ([1]; HP-β-CD 5 mg/ml) [mg/mL]	amount dissolved with HP-β-CD ([1]; HP-β-CD 10 mg/ml) [mg/mL]	amount dissolved with β-CD ([1]; β-CD 0 mg/ml) [mg/mL]	amount dissolved with β-CD ([1]; β-CD 5 mg/ml) [mg/mL]	amount dissolved with HP-β-CD ([1]; HP-β-CD 50 mg/ml) [mg/mL]	amount dissolved with β-CD ([1]; β-CD 10 mg/ml) [mg/mL]	pKa (pKa value)	solubility [2] [µg/mL]	amount dissolved with β-CD ([1]; β-CD 2 mg/ml) [mg/mL]	venous tolerability (Wistar rats)
C[C@H]1CCc2c(N3CCC(O)CC3)c(F)cc3c(=O)c(C(=O)O)cn1c23 [Substance A, S-(−)-9-fluoro-6,7-dihydro-8-(4-hydroxypiperidin-1-yl)-5-methyl-1-oxo-1H,5H-benzo[I,j]quinolizine-2-carboxylic acid]	0.04	0.21	0.28	0.55	0.04	0.27	2.67	0.53	6.8	< 1500	0.12	–

Source: US20040176321A1, “Compositions of benzoquinolizine carboxylic acid antibiotic drugs” (priority 2002, published 2004)
